Values quoted from earlier work in paper PMC7804859, “A metabolically stable apelin-17 analog decreases AVP-induced antidiuresis and improves hyponatremia” (Nature Communications, 2021).
Like-named read-outs stand apart in the source and are kept apart here.

Tested on: anti-K17F serum
Conditions: cited from earlier work; for cross-reactivity with the apelin antiserum: ref De Mota et al, PNAS, 2004
Description: The columns were then treated as described in 207 the paragraph above.

| Substance | recognition by antibody directed against K17F | cross-reactivity with the apelin antiserum (pE13F taken as 100%) | cross-reactivity with the apelin antiserum |
| --- | --- | --- | --- |
| K16P: K17F after removal of the phenylalanine residue at the extreme end of the C-terminus (KFRRQRPRLSHKGPMP; UniProt Q9ULZ1 61-76, looked up, fragment) | does not recognize | < 0.3% |  |
| angiotensin II (DRVYIHPF; Angiotensin-2; UniProt P01019 25-32, looked up) |  |  | Negligible cross-reactivity |
| angiotensin III (RVYIHPF; Angiotensin-3; UniProt P01019 26-32, looked up) |  |  | Negligible cross-reactivity |
| apelin 36: molecular form of apelin identified in vivo (LVQPRGSRNGPGPWQGGRRKFRRQRPRLSHKGPMPF; Apelin-36; UniProt Q9ULZ1 42-77, looked up) |  | 100% |  |
| neuropeptide Y |  |  | Negligible cross-reactivity |
